What was measured:
Assay in all cases: relative viability (nuclei count vs DMSO), 5 days (fraction); higher = more cells survive
[1] = test system: NCI-H23
Procedure, shortened: (§1)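 Lung cancer cell lines were pin-tool dosed in 1536-well plates on the day after seeding, with either a lone drug or a fixed anchor-drug dose plus five library-drug doses (not always all listed) in √10 steps. Nuclei were counted on 4× images after 5 days. Relative viability is the ratio of treated-well to vehicle-well nuclei counts, with each value a median of duplicate plates.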

[2] = test system: NCI-H1355
Procedure, shortened: as §1

[3] = test system: NCI-H1993
Procedure, shortened: as §1

[4] = test system: UMC-11
Procedure, shortened: as §1

[5] = test system: LCLC-97TM1
Procedure, shortened: as §1

[6] = test system: NCI-H322M
Procedure, shortened: as §1

[7] = test system: NCI-H596
Procedure, shortened: as §1

[8] = test system: NCI-H1648
Procedure, shortened: as §1

Q: Which relative viability ([1]; first compound 0.005 µM) does the source give for COc1cc2nccc(Oc3ccc(NC(=O)Nc4cc(C)on4)c(Cl)c3)c2cc1OC [Tivozanib] + CC(=O)Nc1cccc(-n2c(=O)n(C3CC3)c(=O)c3c(Nc4ccc(I)cc4F)n(C)c(=O)c(C)c32)c1 [Trametinib] (partner 0.02 µM) here?
A: The relative viability was 0.363.

Q: And the relative viability ([1]; first compound 0.01581 µM)?
A: Its relative viability is 0.364.

Q: And the relative viability ([1]; first compound 0.05 µM)?
A: The relative viability was 0.383.

Q: What about the relative viability ([1]; first compound 0.5 µM) of the same molecule?
A: The relative viability was 0.373.

Q: What about the relative viability ([2]; first compound 0.005 µM) of the same molecule?
A: The relative viability was 0.413.

Q: What about the relative viability ([2]; first compound 0.01581 µM) of the same molecule?
A: The relative viability was 0.432.

Q: What about the relative viability ([2]; first compound 0.05 µM) of the same molecule?
A: Its relative viability is 0.455.

Q: And the relative viability ([2]; first compound 0.1581 µM)?
A: Its relative viability is 0.33.

Q: What about the relative viability ([2]; first compound 0.5 µM) of the same molecule?
A: The relative viability was 0.408.

Q: What about the relative viability ([3]; first compound 0.005 µM) of the same molecule?
A: Its relative viability is 0.562.

Q: And the relative viability ([3]; first compound 0.01581 µM)?
A: The relative viability was 0.354.

Q: And the relative viability ([3]; first compound 0.05 µM)?
A: Its relative viability is 0.625.

Q: And the relative viability ([3]; first compound 0.1581 µM)?
A: Its relative viability is 0.63.

Q: And the relative viability ([3]; first compound 0.5 µM)?
A: The relative viability was 0.502.

Q: What about the relative viability ([4]; first compound 0.005 µM) of the same molecule?
A: The relative viability was 0.66.

Q: And the relative viability ([4]; first compound 0.01581 µM)?
A: The relative viability was 0.67.

Q: And the relative viability ([4]; first compound 0.05 µM)?
A: The relative viability was 0.754.

Q: And the relative viability ([4]; first compound 0.1581 µM)?
A: The relative viability was 0.533.

Q: And the relative viability ([4]; first compound 0.5 µM)?
A: The relative viability was 0.529.

Q: And the relative viability ([5]; first compound 0.005 µM)?
A: The relative viability was 0.15.

Q: And the relative viability ([5]; first compound 0.01581 µM)?
A: Its relative viability is 0.194.

Q: What about the relative viability ([5]; first compound 0.05 µM) of the same molecule?
A: The relative viability was 0.206.

Q: What about the relative viability ([5]; first compound 0.1581 µM) of the same molecule?
A: The relative viability was 0.165.

Q: What about the relative viability ([5]; first compound 0.5 µM) of the same molecule?
A: The relative viability was 0.273.

Q: What about the relative viability ([6]; first compound 0.005 µM) of the same molecule?
A: Its relative viability is 0.509.

Q: And the relative viability ([6]; first compound 0.01581 µM)?
A: The relative viability was 0.602.

Q: And the relative viability ([6]; first compound 0.05 µM)?
A: Its relative viability is 0.55.

Q: What about the relative viability ([6]; first compound 0.1581 µM) of the same molecule?
A: Its relative viability is 0.517.

Q: What about the relative viability ([6]; first compound 0.5 µM) of the same molecule?
A: The relative viability was 0.577.

Q: What about the relative viability ([7]; first compound 0.005 µM) of the same molecule?
A: The relative viability was 0.653.

Q: What about the relative viability ([7]; first compound 0.01581 µM) of the same molecule?
A: The relative viability was 0.834.

Q: What about the relative viability ([7]; first compound 0.05 µM) of the same molecule?
A: The relative viability was 0.725.

Q: And the relative viability ([7]; first compound 0.5 µM)?
A: The relative viability was 0.931.

Q: What about the relative viability ([8]; first compound 0.005 µM) of the same molecule?
A: Its relative viability is 0.478.

Q: And the relative viability ([8]; first compound 0.01581 µM)?
A: The relative viability was 0.604.

Q: And the relative viability ([8]; first compound 0.05 µM)?
A: The relative viability was 0.473.

Q: What about the relative viability ([8]; first compound 0.1581 µM) of the same molecule?
A: The relative viability was 0.442.

Q: What about the relative viability ([8]; first compound 0.5 µM) of the same molecule?
A: The relative viability was 0.429.

Q: What does the source list for COc1cc2nccc(Oc3ccc(NC(=O)Nc4cc(C)on4)c(Cl)c3)c2cc1OC [Tivozanib] + CC(=O)c1c(C)c2cnc(Nc3ccc(N4CCNCC4)cn3)nc2n(C2CCCC2)c1=O [Palbociclib] (partner 0.5 µM)?
A: relative viability ([1]; first compound 0.005 µM): 0.459; relative viability ([1]; first compound 0.01581 µM): 0.569; relative viability ([1]; first compound 0.05 µM): 0.488; relative viability ([1]; first compound 0.5 µM): 0.497; relative viability ([2]; first compound 0.005 µM): 0.401; relative viability ([2]; first compound 0.01581 µM): 0.447; relative viability ([2]; first compound 0.05 µM): 0.445; relative viability ([2]; first compound 0.1581 µM): 0.326; relative viability ([2]; first compound 0.5 µM): 0.417; relative viability ([3]; first compound 0.005 µM): 0.551; relative viability ([3]; first compound 0.01581 µM): 0.641; relative viability ([3]; first compound 0.05 µM): 0.638; relative viability ([3]; first compound 0.1581 µM): 0.537; relative viability ([3]; first compound 0.5 µM): 0.617; relative viability ([4]; first compound 0.005 µM): 0.288; relative viability ([4]; first compound 0.01581 µM): 0.327; relative viability ([4]; first compound 0.05 µM): 0.32; relative viability ([4]; first compound 0.1581 µM): 0.304; relative viability ([4]; first compound 0.5 µM): 0.307; relative viability ([5]; first compound 0.005 µM): 0.233; relative viability ([5]; first compound 0.01581 µM): 0.245; relative viability ([5]; first compound 0.05 µM): 0.193; relative viability ([5]; first compound 0.1581 µM): 0.268; relative viability ([5]; first compound 0.5 µM): 0.214; relative viability ([6]; first compound 0.005 µM): 0.467; relative viability ([6]; first compound 0.01581 µM): 0.478; relative viability ([6]; first compound 0.05 µM): 0.522; relative viability ([6]; first compound 0.1581 µM): 0.538; relative viability ([6]; first compound 0.5 µM): 0.513; relative viability ([8]; first compound 0.005 µM): 0.31; relative viability ([8]; first compound 0.01581 µM): 0.272; relative viability ([8]; first compound 0.05 µM): 0.269; relative viability ([8]; first compound 0.1581 µM): 0.244; relative viability ([8]; first compound 0.5 µM): 0.231

Q: With CC(=O)O[C@@]12CO[C@@H]1C[C@H](O)[C@@]1(C)C(=O)[C@H](O)C3=C(C)[C@@H](OC(=O)[C@H](O)[C@@H](NC(=O)OC(C)(C)C)c4ccccc4)C[C@@](O)([C@@H](OC(=O)c4ccccc4)[C@H]21)C3(C)C [Docetaxel] + CC(=O)c1c(C)c2cnc(Nc3ccc(N4CCNCC4)cn3)nc2n(C2CCCC2)c1=O [Palbociclib] (partner 0.5 µM) as the molecule, how does the relative viability ([1]; first compound 0.0002 µM) read?
A: The relative viability was 0.562.

Q: What about the relative viability ([1]; first compound 0.000632 µM) of the same molecule?
A: The relative viability was 0.523.

Q: And the relative viability ([1]; first compound 0.002 µM)?
A: Its relative viability is 0.348.

Q: And the relative viability ([1]; first compound 0.006325 µM)?
A: The relative viability was 0.168.

Q: What about the relative viability ([1]; first compound 0.02 µM) of the same molecule?
A: The relative viability was 0.163.

Q: And the relative viability ([2]; first compound 0.0002 µM)?
A: Its relative viability is 0.374.

Q: What about the relative viability ([2]; first compound 0.000632 µM) of the same molecule?
A: The relative viability was 0.402.

Q: What about the relative viability ([2]; first compound 0.002 µM) of the same molecule?
A: Its relative viability is 0.29.

Q: And the relative viability ([2]; first compound 0.02 µM)?
A: Its relative viability is 0.176.

Q: And the relative viability ([3]; first compound 0.0002 µM)?
A: The relative viability was 0.799.

Q: What about the relative viability ([3]; first compound 0.000632 µM) of the same molecule?
A: Its relative viability is 0.708.

Q: What about the relative viability ([3]; first compound 0.002 µM) of the same molecule?
A: Its relative viability is 0.686.

Q: What about the relative viability ([3]; first compound 0.006325 µM) of the same molecule?
A: The relative viability was 0.538.

Q: What about the relative viability ([3]; first compound 0.02 µM) of the same molecule?
A: The relative viability was 0.307.

Q: What about the relative viability ([4]; first compound 0.0002 µM) of the same molecule?
A: Its relative viability is 0.322.

Q: And the relative viability ([4]; first compound 0.000632 µM)?
A: The relative viability was 0.357.

Q: What about the relative viability ([4]; first compound 0.002 µM) of the same molecule?
A: The relative viability was 0.294.

Q: And the relative viability ([4]; first compound 0.006325 µM)?
A: The relative viability was 0.266.

Q: And the relative viability ([4]; first compound 0.02 µM)?
A: The relative viability was 0.234.

Q: And the relative viability ([6]; first compound 0.0002 µM)?
A: Its relative viability is 0.469.

Q: And the relative viability ([6]; first compound 0.000632 µM)?
A: The relative viability was 0.448.

Q: And the relative viability ([6]; first compound 0.002 µM)?
A: Its relative viability is 0.471.

Q: What about the relative viability ([6]; first compound 0.006325 µM) of the same molecule?
A: The relative viability was 0.468.

Q: And the relative viability ([6]; first compound 0.02 µM)?
A: The relative viability was 0.438.

Q: What about the relative viability ([8]; first compound 0.0002 µM) of the same molecule?
A: The relative viability was 0.265.

Q: What about the relative viability ([8]; first compound 0.000632 µM) of the same molecule?
A: The relative viability was 0.26.

Q: And the relative viability ([8]; first compound 0.002 µM)?
A: Its relative viability is 0.271.

Q: And the relative viability ([8]; first compound 0.006325 µM)?
A: Its relative viability is 0.249.

Q: And the relative viability ([8]; first compound 0.02 µM)?
A: The relative viability was 0.247.

From the supplement of paper PMC10307832
